Experimental data from patent US9981916B2 (Genentech, Inc., priority 2013, dated 2018).

Target: T1, RORc ligand binding domain (Homo sapiens, UniProt P51449)
T1 construct: host or cells: E. coli
T1 sequence (P51449 269-508 limits assumed): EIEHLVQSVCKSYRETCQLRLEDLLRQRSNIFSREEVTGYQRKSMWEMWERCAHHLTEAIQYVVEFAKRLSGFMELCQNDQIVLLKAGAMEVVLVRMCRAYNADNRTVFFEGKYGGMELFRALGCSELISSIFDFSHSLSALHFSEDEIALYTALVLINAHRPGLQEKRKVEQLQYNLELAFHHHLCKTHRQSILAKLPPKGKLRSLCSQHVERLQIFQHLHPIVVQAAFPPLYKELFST
Test: In vitro RORc ligand binding assay (25-[3H]hydroxycholesterol displacement, filter binding)
Settings: 6 nM 25-[3H]hydroxycholesterol, 0.6 ug/mL RORc receptor, 3 h at 25° C.
Summary of the method: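 Compounds in 5% DMSO, either dose-response or screened at 1 and 10 uM, competed with 6 nM 25-[3H]hydroxycholesterol for 0.6 ug/mL RORc over 3 h at 25° C (HEPES pH 7.4, NaCl, MgCl2, DTT, BSA buffer). Bound tracer was filter-harvested and counted; nonspecific binding came from 1 uM 25-hydroxycholesterol.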

Row | Structure (SMILES) | IC50 [nM]
1 | CC1(C)[C@@H]2CC[C@@]1(C(=O)N1CC(C#N)C1)c1nnc(-c3c(F)cccc3F)cc12 [Example 259, 1-((5S,8S)-3-(2,6-difluorophenyl)-9,9-dimethyl-5,6,7,8-tetrahydro-5,8-methanocinnoline-8-carbonyl)azetidine-3-carbnitrite] | 345
2 | Cc1nnc(N(CCN(C)C)C[C@@]23CC[C@@H](c4cc(-c5c(F)cccc5F)nnc42)C3(C)C)o1 [Example 260, N1-(((5R,8S)-3-(2,6-difluorophenyl)-9,9-dimethyl-5,6,7,8-tetrahydro-5,8-methanocinnolin-8-yl)methyl)-N2,N2-dimethyl-N1-(5-methyl-1,3,4-oxadiazol-2-yl)ethane-1,2-diamine] | 3410
3 | CC1(C)[C@@H]2CC[C@@]1(C(=O)N1C3CCC1CC(O)C3)c1nnc(-c3c(F)cccc3F)cc12 (stereo partly drawn) [Example 261, ((5S,8S)-3-(2,6-difluorophenyl)-9,9-dimethyl-5,6,7,8-tetrahydro-5,8-methanocinnolin-8-yl)(3-hydroxy-8-azabicyclo[3.2.1]octan-8-yl)methanone] | 1140
4 | CC1(C)[C@@H]2CC[C@@]1(C(=O)N1CCC(CCO)C1)c1nnc(-c3c(F)cccc3F)cc12 (stereo partly drawn) [Example 262, ((5S,8S)-3-(2,6-difluorophenyl)-9,9-dimethyl-5,6,7,8-tetrahydro-5,8-methanocinnolin-8-yl)(3-(2-hydroxyethyl)pyrrolidin-1-yl)methanone] | 314
5 | Cn1nc([C@]23CC[C@H](c4cc(-c5c(F)cccc5F)nnc42)C3(C)C)oc1=O [Example 263, 5-((5S,8S)-3-(2,6-difluorophenyl)-9,9-dimethyl-5,6,7,8-tetrahydro-5,8-methanocinnolin-8-yl)-3-methyl-1,3,4-oxadiazol-2(3H)-one] | 471
6 | CC1(C)[C@@H]2CC[C@@]1(C(=O)N1CC(CC#N)C1)c1nnc(-c3c(F)cccc3F)cc12 [Example 264, 2-(1-((5S,8S)-3-(2,6-difluorophenyl)-9,9-dimethyl-5,6,7,8-tetrahydro-5,8-methanocinnoline-8-carbonyl)azetidin-3-yl)acetonitrile] | 307
7 | CN(C(=O)[C@]12CC[C@H](c3cc(-c4c(F)cccc4F)nnc31)C2(C)C)c1ccccn1 [Example 265, (5S,8S)-3-(2,6-difluorophenyl)-N,9,9-trimethyl-N-(pyridin-2-yl)-5,6,7,8-tetrahydro-5,8-methanocinnoline-8-carboxamide] | 1040
8 | Cc1nnc(N(Cc2ccccc2)C[C@@]23CC[C@@H](c4cc(-c5c(F)cccc5F)nnc42)C3(C)C)o1 [Example 266, N-benzyl-N-(((5R,8S)-3-(2,6-difluorophenyl)-9,9-dimethyl-5,6,7,8-tetrahydro-5,8-methanocinnolin-8-yl)methyl)-5-methyl-1,3,4-oxadiazol-2-amine] | 214
9 | COCCn1nccc1[C@@]12CC[C@@H](c3cc(-c4c(F)cccc4F)nnc31)C2(C)C [Example 267, (5R,8S)-3-(2,6-difluorophenyl)-8-(1-(2-methoxyethyl)-1H-pyrazol-5-yl)-9,9-dimethyl-5,6,7,8-tetrahydro-5,8-methanocinnoline] | 339
10 | CC1(C)[C@H]2CC[C@]1(CN1CCNC1=O)c1nnc(-c3c(F)cccc3F)cc12 [Example 268, 1-(((5R,8S)-3-(2,6-difluorophenyl)-9,9-dimethyl-5,6,7,8-tetrahydro-5,8-methanocinnolin-8-yl)methyl)imidazolidin-2-one] | 321
11 | CC1(C)[C@H]2CC[C@]1(c1ccnn1CCO)c1nnc(-c3c(F)cccc3F)cc12 [Example 269, 2-(5-((5R,8S)-3-(2,6-difluorophenyl)-9,9-dimethyl-5,6,7,8-tetrahydro-5,8-methanocinnolin-8-yl)-1H-pyrazol-1-yl)ethanol] | 423
12 | Cc1nnc(OC(=O)[C@]23CC[C@H](c4cc(-c5c(F)cccc5F)nnc42)C3(C)C)o1 [Example 270, (5S,8S)-5-methyl-1,3,4-oxadiazol-2-yl 3-(2,6-difluorophenyl)-9,9-dimethyl-5,6,7,8-tetrahydro-5,8-methanocinnoline-8-carboxylate] | 1380
13 | CCN(C(=O)CO)C(C)(C)[C@@]12CC[C@@H](c3cc(-c4c(F)cccc4F)nnc31)C2(C)C [Example 271, N-(2-((5R,8S)-3-(2,6-difluorophenyl)-9,9-dimethyl-5,6,7,8-tetrahydro-5,8-methanocinnolin-8-yl)propan-2-yl)-N-ethyl-2-hydroxyacetamide] | 189
14 | CC1(C)[C@H]2CC[C@]1(CN(CCO)c1ncccn1)c1nnc(-c3c(F)cccc3F)cc12 [Example 272, 2-((((5R,8S)-3-(2,6-difluorophenyl)-9,9-dimethyl-5,6,7,8-tetrahydro-5,8-methanocinnolin-8-yl)methyl)(pyrimidin-2-yl)amino)ethanol] | 124
15 | CC1(C)[C@H]2CC[C@]1(CN1CCCC1=O)c1nnc(-c3c(F)cccc3F)cc12 [Example 273, 1-(((5R,8S)-3-(2,6-difluorophenyl)-9,9-dimethyl-5,6,7,8-tetrahydro-5,8-methanocinnolin-8-yl)methyl)pyrrolidin-2-one] | 453
16 | COC(=O)N(C)[C@@]12CC[C@@H](c3cc(-c4c(F)cccc4F)nnc31)C2(C)C [Example 274, methyl ((5R,8R)-3-(2,6-difluorophenyl)-9,9-dimethyl-5,6,7,8-tetrahydro-5,8-methanocinnolin-8-yl)(methyl)carbamate] | 301
17 | Cn1nccc1[C@@]12CC[C@@H](c3cc(-c4c(F)cccc4F)nnc31)C2(C)C [Example 275, (5R,8S)-3-(2,6-difluorophenyl)-9,9-dimethyl-8-(1-methyl-1H-pyrazol-5-yl)-5,6,7,8-tetrahydro-5,8-methanocinnoline] | 146
18 | CC1(C)[C@H]2CC[C@]1(c1ccnn1CCC#N)c1nnc(-c3c(F)cccc3F)cc12 [Example 276, 3-(5-((5R,8S)-3-(2,6-difluorophenyl)-9,9-dimethyl-5,6,7,8-tetrahydro-5,8-methanocinnolin-8-yl)-1H-pyrazol-1-yl)propanenitrile] | 466
19 | CCOC(=O)N(CC)C[C@@]12CC[C@@H](c3cc(-c4c(F)cccc4F)nnc31)C2(C)C [Example 277, ethyl (((5R,8S)-3-(2,6-difluorophenyl)-9,9-dimethyl-5,6,7,8-tetrahydro-5,8-methanocinnolin-8-yl)methyl)(ethyl) carbamate] | 5
20 | CCN(C[C@@]12CC[C@@H](c3cc(-c4c(F)cccc4F)nnc31)C2(C)C)C(=O)N(C)C [Example 278, 1-(((5R,8S)-3-(2,6-difluorophenyl)-9,9-dimethyl-5,6,7,8-tetrahydro-5,8-methanocinnolin-8-yl)methyl)-1-ethyl-3,3-dimethylurea] | 36
21 | CC1(C)[C@H]2CC[C@]1(CN1CCOC1=O)c1nnc(-c3c(F)cccc3F)cc12 [Example 279, 3-(((5R,8S)-3-(2,6-difluorophenyl)-9,9-dimethyl-5,6,7,8-tetrahydro-5,8-methanocinnolin-8-yl)methyl)oxazolidin-2-one] | 222
22 | CN(C(=O)OC(C)(C)C)[C@]12CC[C@H](c3cc(-c4c(F)cccc4F)nnc31)C2(C)C [Example 280, tert-butyl ((5S,8S)-3-(2,6-difluorophenyl)-9,9-dimethyl-5,6,7,8-tetrahydro-5,8-methanocinnolin-8-yl)(methyl)carbamate] | 2240
23 | CN(C(=O)OC(C)(C)C)[C@@]12CC[C@@H](c3cc(-c4c(F)cccc4F)nnc31)C2(C)C [Example 281, tert-butyl ((5R,8R)-3-(2,6-difluorophenyl)-9,9-dimethyl-5,6,7,8-tetrahydro-5,8-methanocinnolin-8-yl)(methyl)carbamate] | 218
24 | CC1(C)[C@H]2CC[C@]1(NS(C)(=O)=O)c1nnc(-c3c(F)cccc3F)cc12 [Example 282, N-((5R,8R)-3-(2,6-difluorophenyl)-9,9-dimethyl-5,6,7,8-tetrahydro-5,8-methanocinnolin-8-yl)methanesulfonamide] | 984
25 | CC1(C)[C@H]2CC[C@]1(CN(CCO)C(N)=O)c1nnc(-c3c(F)cccc3F)cc12 [Example 283, 1-(((5R,8S)-3-(2,6-difluorophenyl)-9,9-dimethyl-5,6,7,8-tetrahydro-5,8-methanocinnolin-8-yl)methyl)-1-(2-hydroxyethyl)urea] | 226
26 | CC1(C)[C@H]2CC[C@]1(CN1CCCS1(=O)=O)c1nnc(-c3c(F)cccc3F)cc12 [Example 284, 2-(((5R,8S)-3-(2,6-difluorophenyl)-9,9-dimethyl-5,6,7,8-tetrahydro-5,8-methanocinnolin-8-yl)methyl)isothiazolidine 1,1-dioxide] | 856
27 | CCNC(=O)N(C)[C@@]12CC[C@@H](c3cc(-c4c(F)cccc4F)nnc31)C2(C)C [Example 285, 1-((5R,8R)-3-(2,6-difluorophenyl)-9,9-dimethyl-5,6,7,8-tetrahydro-5,8-methanocinnolin-8-yl)-3-ethyl-1-methylurea] | 2070
28 | CN([C@@]12CC[C@@H](c3cc(-c4c(F)cccc4F)nnc31)C2(C)C)S(C)(=O)=O [Example 286, N-((5R,8R)-3-(2,6-difluorophenyl)-9,9-dimethyl-5,6,7,8-tetrahydro-5,8-methanocinnolin-8-yl)-N-methylmethanesulfonamide] | 219
29 | CC1(C)[C@H]2CC[C@]1(c1ccn(CCC#N)n1)c1nnc(-c3c(F)cccc3F)cc12 [Example 287] | 623
30 | CCNC(=O)N(CC)C[C@@]12CC[C@@H](c3cc(-c4c(F)cccc4F)nnc31)C2(C)C [Example 288, 1-(((5R,8S)-3-(2,6-difluorophenyl)-9,9-dimethyl-5,6,7,8-tetrahydro-5,8-methanocinnolin-8-yl)methyl)-1,3-diethylurea] | 21
